Results as given in ChEMBL document CHEMBL1201862, “PubChem BioAssay data set” (2004).
Active and inactive are the calls of the source.

Legend:
[1] = blockers of HIV-1 ZM109 envelope-driven cell-cell fusion – HeLa effector, CEM target cells, luciferase, cherry-pick, dose response (AID 652058); assay type: functional, cell-based;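 further: luciferase signal from HIV-1 Env mediated cell-cell fusion of effector and target cells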
[2] = blockers of HIV-1 envelope-mediated cell-cell fusion – cherry-pick, dose response (AID 652057); assay type: functional, cell-based
[3] = HIV-1 AD8 envelope cell-cell fusion blockers – cherry-pick, dose response (AID 652062); assay type: functional, cell-based;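 further: luciferase signal from cell-cell fusion driven by HIV-1 clade B AD8 Env; potency is for inhibitors of fusion seen as a drop in luminescence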
[4] = Luminescence Cell-Based Dose Retest to Confirm Inhibitors of Cancer Stem Cells. [Related pubchem assays (depositor defined):AID2717, AID2721]; assay type: functional; conditions: Homo sapiens
[5] = viability of HCT116 lacking mutant beta-catenin – cell-based, human colon tumor, dose response (AID 1045); assay type: functional;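 further: HCT116 colon tumor cells with beta catenin knocked out; cells exposed to compound for 60 hours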
[6] = THP-1 cell cytotoxicity, dose response, cytotoxicity control for non-replicating M. tuberculosis project (AID 489025); assay type: functional
cells = assay type: functional
[7] = viability of PTEN-deleted HCT116 cells – cell-based, HCT116 PTEN knockout, dose response (AID 1047); assay type: functional;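 further: HCT116 colon tumor cells with PTEN knocked out; cells exposed to compound for 60 hours before readout; potency for loss of cell viability measured by luminescence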
[8] = biological target: Voltage-dependent T-type calcium channel subunit alpha-1H (Homo sapiens, UniProt O95180); assay type: functional;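 further: channel activity triggered by adding a high calcium stimulation buffer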
[9] = biological target: T1, Ubiquitin-conjugating enzyme E2 N (Homo sapiens, UniProt P61088); assay type: functional;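 further: Dose-response confirmation in a TR-FRET assay detecting UBC13-driven polyubiquitin chain formation, inhibition measured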
T1 sequence (P61088 whole entry): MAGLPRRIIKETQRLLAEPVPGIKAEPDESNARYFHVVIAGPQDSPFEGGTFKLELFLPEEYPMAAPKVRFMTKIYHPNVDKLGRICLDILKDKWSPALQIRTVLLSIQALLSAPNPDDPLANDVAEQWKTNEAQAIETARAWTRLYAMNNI

Streptococcus = test: GAS UMAA2166 growth inhibition – luminescence, BacTiterGlo, counter-screen for streptokinase expression inhibitor project, dose response (AID 1915); assay type: functional, organism-based;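 further: potency for reduction of bacterial viability or growth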
[10] = system: Streptococcus sp. 'group A'; test: Streptococcus pyogenes SK(-)GAS viability under kanamycin – luminescence, BacTiterGlo, confirmation, counter-screen for streptokinase expression inhibitor project, dose response (AID 1900); assay type: functional, organism-based
Streptokinase A = biological target: T2, Streptokinase A (Streptococcus pyogenes serotype M1, UniProt P10520); test: viability-normalized secreted streptokinase activity reduction – plasminogen activation absorbance, OD405, dose response (AID 1914); assay type: functional, Streptococcus pyogenes M1 GAS;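 further: secreted streptokinase activity via plasminogen activation per viability signal from cell pellet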
T2 sequence (P10520 whole entry): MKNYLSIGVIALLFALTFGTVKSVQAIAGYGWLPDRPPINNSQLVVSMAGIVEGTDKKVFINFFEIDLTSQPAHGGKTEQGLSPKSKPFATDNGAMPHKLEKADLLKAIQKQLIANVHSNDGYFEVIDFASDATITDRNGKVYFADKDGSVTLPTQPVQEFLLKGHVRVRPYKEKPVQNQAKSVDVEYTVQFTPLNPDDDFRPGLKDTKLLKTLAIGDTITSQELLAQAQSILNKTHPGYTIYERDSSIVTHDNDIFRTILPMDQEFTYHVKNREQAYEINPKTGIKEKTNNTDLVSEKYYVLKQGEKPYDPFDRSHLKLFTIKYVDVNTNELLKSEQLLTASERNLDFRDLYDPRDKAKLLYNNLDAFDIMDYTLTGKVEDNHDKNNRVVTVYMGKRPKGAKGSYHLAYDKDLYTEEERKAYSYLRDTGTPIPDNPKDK

[11] = intracellular Trypanosoma cruzi inhibitors in host cells – cell-based, plate reader, cherry-pick samples, set 3, dose response (AID 651818); assay type: functional;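 further: compounds incubated with infected cells for about four days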
[12] = biological target: T3, Sentrin-specific protease 8 (Homo sapiens, UniProt Q96LD8); assay type: functional;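 further: luminescence read-out of SENP8 inhibition, dose-response confirmation following an ultra-high-throughput screen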
T3 sequence (Q96LD8 whole entry): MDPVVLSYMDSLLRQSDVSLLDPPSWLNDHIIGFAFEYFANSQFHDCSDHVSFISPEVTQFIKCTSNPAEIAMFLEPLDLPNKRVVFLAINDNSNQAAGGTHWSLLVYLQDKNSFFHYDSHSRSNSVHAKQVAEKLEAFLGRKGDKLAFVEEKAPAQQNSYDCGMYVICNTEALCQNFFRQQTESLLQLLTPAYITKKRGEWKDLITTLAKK

[13] = biological target: T4, Sentrin-specific protease 6 (Homo sapiens, UniProt Q9GZR1); assay type: functional;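 further: Luminescence-based dose-response confirmatory assay of SENP6 inhibition, following up an ultra-high-throughput screen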
T4 sequence (Q9GZR1 whole entry): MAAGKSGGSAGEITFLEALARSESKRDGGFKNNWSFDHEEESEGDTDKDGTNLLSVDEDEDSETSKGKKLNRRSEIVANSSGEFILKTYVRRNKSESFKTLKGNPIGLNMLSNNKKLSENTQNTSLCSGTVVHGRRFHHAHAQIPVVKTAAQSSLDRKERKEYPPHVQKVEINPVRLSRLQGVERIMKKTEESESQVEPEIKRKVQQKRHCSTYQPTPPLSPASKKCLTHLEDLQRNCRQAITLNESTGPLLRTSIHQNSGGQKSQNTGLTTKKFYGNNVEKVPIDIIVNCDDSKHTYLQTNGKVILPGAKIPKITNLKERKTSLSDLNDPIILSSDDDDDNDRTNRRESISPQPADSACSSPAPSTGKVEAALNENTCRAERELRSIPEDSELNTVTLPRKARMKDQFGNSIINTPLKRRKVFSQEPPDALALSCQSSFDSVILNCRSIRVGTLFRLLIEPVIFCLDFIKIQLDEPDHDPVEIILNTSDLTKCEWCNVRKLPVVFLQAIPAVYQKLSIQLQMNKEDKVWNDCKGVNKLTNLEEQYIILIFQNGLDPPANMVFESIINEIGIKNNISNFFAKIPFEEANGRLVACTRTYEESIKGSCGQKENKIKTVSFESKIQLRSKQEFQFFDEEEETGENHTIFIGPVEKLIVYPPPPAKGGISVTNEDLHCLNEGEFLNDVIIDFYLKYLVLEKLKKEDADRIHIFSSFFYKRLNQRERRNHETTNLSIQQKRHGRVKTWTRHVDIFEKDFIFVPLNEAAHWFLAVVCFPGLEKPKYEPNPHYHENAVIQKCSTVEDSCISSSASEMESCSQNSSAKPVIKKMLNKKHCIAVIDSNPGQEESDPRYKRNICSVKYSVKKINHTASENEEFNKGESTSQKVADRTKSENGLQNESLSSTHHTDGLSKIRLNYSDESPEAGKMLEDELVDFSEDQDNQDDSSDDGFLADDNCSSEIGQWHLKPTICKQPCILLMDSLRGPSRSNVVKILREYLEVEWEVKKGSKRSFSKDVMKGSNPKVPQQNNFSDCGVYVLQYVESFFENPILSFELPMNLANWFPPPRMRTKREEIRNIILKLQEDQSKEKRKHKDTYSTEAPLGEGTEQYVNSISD

[14] = biological target: T5, Sentrin-specific protease 7 (Homo sapiens, UniProt Q9BQF6); assay type: functional;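 further: Luminescence-based dose-response confirmation of ultra-high-throughput screening hits, measuring inhibition of SENP7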
T5 sequence (Q9BQF6 whole entry): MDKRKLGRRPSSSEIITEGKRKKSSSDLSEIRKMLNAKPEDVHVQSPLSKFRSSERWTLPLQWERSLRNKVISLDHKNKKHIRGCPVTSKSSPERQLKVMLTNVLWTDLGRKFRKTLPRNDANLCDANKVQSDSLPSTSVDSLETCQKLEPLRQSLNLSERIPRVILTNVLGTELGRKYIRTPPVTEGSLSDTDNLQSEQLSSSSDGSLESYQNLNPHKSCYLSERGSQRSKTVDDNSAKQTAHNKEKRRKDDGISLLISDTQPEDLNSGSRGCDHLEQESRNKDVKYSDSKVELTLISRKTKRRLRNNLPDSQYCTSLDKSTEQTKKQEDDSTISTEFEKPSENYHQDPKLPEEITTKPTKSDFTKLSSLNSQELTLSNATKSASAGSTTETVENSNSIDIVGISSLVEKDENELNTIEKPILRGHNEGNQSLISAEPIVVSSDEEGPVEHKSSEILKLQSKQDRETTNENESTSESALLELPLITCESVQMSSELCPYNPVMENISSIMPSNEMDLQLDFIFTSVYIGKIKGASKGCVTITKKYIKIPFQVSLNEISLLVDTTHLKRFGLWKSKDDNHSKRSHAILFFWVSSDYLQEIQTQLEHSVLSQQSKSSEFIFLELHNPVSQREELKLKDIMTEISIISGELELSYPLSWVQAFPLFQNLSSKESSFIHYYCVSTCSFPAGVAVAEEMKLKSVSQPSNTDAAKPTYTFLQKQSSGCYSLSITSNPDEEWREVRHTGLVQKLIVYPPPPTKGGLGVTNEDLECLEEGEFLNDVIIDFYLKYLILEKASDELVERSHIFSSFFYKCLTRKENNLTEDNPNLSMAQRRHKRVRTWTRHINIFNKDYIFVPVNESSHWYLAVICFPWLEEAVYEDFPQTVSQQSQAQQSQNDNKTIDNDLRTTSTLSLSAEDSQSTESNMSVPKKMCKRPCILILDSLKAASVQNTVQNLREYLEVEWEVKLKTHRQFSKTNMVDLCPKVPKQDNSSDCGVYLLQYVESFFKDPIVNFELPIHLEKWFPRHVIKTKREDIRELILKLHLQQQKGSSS

Caspase-3 = biological target: T6, Caspase-3 (Homo sapiens, UniProt P42574); assay type: functional;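 further: Dose-response selectivity test against caspase-3 for candidate inhibitors of sentrin-specific proteases (SENPs)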
T6 sequence (P42574 whole entry): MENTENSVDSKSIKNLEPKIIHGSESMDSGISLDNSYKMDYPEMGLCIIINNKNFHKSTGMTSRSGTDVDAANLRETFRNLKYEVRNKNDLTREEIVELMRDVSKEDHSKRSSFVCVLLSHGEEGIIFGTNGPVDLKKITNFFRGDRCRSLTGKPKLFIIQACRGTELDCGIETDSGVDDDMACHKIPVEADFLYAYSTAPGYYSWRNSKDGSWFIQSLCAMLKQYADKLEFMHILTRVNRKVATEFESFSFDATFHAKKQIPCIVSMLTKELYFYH

Nonstructural protein 1 = Nonstructural protein 1 (Influenza A virus, UniProt Q194T2); assay type: functional, Influenza A virus (A/California/07/2009(H1N1))
[15] = biological target: T7, Rac GTPase-activating protein 1 (Homo sapiens, UniProt Q9H0H5); test: blockers of MgcRacGAP-driven Rac1 GTP hydrolysis – biochemical, ADP Hunter fluorescence, primary and confirmatory, confirmation (AID 624330); assay type: functional
T7 sequence (Q9H0H5 whole entry): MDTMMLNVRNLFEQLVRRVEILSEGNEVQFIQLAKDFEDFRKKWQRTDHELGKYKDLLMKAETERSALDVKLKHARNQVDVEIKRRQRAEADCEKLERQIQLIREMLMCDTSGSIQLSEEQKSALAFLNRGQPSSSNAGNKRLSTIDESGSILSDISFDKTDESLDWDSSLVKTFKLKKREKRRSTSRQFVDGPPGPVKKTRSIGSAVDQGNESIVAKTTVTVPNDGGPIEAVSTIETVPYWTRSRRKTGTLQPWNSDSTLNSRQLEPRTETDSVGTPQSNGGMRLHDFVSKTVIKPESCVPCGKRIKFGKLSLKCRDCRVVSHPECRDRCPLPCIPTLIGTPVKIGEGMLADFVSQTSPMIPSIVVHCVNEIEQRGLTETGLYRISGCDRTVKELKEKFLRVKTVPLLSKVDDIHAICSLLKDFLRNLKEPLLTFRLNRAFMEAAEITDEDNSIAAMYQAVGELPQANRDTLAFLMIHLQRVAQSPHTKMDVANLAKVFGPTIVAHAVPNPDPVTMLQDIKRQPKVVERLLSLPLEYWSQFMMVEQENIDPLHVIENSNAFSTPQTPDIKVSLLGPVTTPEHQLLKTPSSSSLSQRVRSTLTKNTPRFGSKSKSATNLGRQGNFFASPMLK

Voltage-dependent T-type calcium channel subunit alpha-1H, sequence (O95180 whole entry): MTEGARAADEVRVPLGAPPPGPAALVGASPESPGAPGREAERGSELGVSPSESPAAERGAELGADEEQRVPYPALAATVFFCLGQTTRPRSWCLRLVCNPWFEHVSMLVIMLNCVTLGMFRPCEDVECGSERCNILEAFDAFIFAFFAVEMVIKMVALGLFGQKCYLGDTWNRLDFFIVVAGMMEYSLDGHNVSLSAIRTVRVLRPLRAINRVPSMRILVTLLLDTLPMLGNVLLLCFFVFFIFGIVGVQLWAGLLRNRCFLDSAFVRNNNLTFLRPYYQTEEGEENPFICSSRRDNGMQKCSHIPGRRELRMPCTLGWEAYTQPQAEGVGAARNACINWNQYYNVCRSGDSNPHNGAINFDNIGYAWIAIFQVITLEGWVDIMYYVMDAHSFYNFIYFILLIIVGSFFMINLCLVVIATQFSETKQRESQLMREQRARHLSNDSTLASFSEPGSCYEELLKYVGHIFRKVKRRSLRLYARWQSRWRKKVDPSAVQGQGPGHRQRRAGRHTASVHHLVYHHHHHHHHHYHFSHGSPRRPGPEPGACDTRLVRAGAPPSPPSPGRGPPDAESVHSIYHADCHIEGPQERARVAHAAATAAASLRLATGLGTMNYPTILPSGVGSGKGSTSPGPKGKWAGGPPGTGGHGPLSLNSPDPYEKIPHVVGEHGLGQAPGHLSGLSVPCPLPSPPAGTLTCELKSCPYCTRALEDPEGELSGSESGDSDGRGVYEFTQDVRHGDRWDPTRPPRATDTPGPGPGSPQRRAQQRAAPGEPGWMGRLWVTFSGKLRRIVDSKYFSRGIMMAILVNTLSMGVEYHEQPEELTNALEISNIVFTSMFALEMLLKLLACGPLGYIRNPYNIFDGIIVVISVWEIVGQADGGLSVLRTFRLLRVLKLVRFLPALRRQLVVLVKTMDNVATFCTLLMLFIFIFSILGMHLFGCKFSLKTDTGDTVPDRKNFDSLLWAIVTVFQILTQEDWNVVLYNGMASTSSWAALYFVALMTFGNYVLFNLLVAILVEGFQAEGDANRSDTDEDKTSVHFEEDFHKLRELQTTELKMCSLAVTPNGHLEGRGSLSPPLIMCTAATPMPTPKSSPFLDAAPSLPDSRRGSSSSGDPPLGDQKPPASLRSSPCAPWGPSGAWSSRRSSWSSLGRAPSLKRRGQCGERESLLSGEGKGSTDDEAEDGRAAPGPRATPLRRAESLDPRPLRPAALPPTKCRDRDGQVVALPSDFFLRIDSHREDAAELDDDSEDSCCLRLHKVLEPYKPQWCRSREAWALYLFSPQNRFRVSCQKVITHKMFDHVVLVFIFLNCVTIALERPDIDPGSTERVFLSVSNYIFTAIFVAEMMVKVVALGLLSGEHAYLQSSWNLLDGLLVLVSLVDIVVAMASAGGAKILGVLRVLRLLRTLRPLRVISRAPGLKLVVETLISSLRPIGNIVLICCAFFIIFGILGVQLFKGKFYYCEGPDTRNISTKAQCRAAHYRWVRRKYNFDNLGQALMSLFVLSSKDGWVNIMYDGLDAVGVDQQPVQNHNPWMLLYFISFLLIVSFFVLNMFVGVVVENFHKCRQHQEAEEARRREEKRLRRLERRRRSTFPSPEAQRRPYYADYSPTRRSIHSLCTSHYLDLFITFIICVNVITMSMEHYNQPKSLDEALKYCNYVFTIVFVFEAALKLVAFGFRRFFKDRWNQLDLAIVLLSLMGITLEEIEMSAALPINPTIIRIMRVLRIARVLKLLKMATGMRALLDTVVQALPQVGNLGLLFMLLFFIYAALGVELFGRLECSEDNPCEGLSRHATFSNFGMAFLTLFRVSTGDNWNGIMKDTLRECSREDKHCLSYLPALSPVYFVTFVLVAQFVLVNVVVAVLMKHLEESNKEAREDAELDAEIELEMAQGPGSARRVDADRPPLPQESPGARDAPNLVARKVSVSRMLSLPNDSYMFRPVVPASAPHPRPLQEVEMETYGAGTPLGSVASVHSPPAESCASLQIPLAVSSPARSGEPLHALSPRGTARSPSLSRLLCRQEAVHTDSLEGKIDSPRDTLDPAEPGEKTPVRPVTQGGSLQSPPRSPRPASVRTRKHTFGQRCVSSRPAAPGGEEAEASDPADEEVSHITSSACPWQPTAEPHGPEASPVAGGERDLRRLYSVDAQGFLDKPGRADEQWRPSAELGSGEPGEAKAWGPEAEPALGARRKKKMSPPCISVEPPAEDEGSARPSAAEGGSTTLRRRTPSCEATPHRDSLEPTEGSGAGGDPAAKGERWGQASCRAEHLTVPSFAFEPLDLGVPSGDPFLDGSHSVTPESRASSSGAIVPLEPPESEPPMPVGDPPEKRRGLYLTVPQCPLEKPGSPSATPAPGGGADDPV
Nonstructural protein 1, sequence (Q194T2 whole entry): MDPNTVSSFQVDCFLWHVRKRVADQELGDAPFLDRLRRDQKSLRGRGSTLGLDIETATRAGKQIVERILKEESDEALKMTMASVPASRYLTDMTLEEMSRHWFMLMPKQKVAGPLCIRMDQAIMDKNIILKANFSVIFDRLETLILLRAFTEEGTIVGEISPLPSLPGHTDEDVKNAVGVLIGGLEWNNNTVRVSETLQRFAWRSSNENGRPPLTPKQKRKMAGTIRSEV

O=C(NNS(=O)(=O)c1ccc(F)cc1F)C1Cc2c(ccc3ccccc23)O1 (stereo unspecified)
AC50 [1]: 37.5 µM (active) | AC50 [2]: 8.04 µM (active) | AC50 [3]: 24.2 µM (active)

CCOC(=O)c1c(NC(=O)C2COc3ccccc3O2)sc2c1CC(C)(C)NC2(C)C (stereo unspecified)
AC50 [4]: 8.55 µM (active) | EC50 [5]: 10.3 µM (active) | CC50 [6]: 25.3 µM (active) | IC50 (cells): 36.2 µM (active) | EC50 [7]: 10.6 µM (active)

Cc1cccc(-c2noc(CN(C(=O)c3ccc(Br)o3)C(C)C)n2)c1
EC50 [8]: 11.1 µM (active)

Cc1cc(NC(=O)C(C)Oc2ccc(Cl)cc2Cl)n(-c2ccccc2)n1 (stereo unspecified)
EC50 [8]: 8.91 µM (active)

O=C(CCCCCN1C(=O)c2cccc3cccc(c23)C1=O)NCCO
IC50 [9]: > 20 µM (inactive)

COc1ccc(/C=N/NC(=O)Cc2csc(Nc3cccc(C(F)(F)F)c3)n2)cc1C
EC50 (Streptococcus): > 150 µM (not active) | EC50 [10]: 9.89 µM (active) | EC50 (Streptokinase A): 10.4 µM (active) | EC50 [8]: 4.82 µM (active)

C[C@@H]1CN([C@@H](C)CO)C(=O)c2cccc(NC(=O)c3nc4ccccc4s3)c2O[C@H]1CN(C)Cc1ccc2c(c1)OCO2
AC50 [11]: 1.78 µM (active)

COc1ccc(NC(=O)Nc2ccc3c(c2)C(=O)N([C@H](C)CO)C[C@H](C)[C@@H](CN(C)CC2CCCCC2)OCCCC[C@@H](C)O3)cc1
AC50 [11]: 3.41 µM (active)

C[C@@H]1CN([C@H](C)CO)C(=O)Cc2cc(NS(=O)(=O)c3ccccc3)ccc2O[C@@H]1CN(C)Cc1ccc(Cl)c(Cl)c1
AC50 [11]: 3.52 µM (active)

C[C@H](CO)N1C[C@H](C)[C@H](CN(C)Cc2ccc(Cl)c(Cl)c2)Oc2c(NC(=O)c3ccc(-c4nccs4)cc3)cccc2C1=O
AC50 [11]: 4.5 µM (active)

C[C@H]1CN([C@@H](C)CO)C(=O)c2cccc(NC(=O)c3ccc(-c4nccs4)cc3)c2O[C@H]1CN(C)Cc1ccc(C(=O)Nc2ccccc2N)cc1
AC50 [11]: 1.49 µM (active)

CN(c1ccccc1)c1ccc(/C=N/N2CCOCC2)cc1
IC50 [12]: 39.5 µM (active) | IC50 [13]: 27.3 µM (active) | IC50 [14]: 8.89 µM (active) | IC50 (Caspase-3): 18.8 µM (active) | IC50 (Nonstructural protein 1): > 100 µM (active) | IC50 [15]: 37.2 µM (active)
